From ChEMBL document CHEMBL1268977, “Efficient synthesis, spectral analysis and antimicrobial studies of nitrogen and sulfur containing spiro heterocycles from 2,4-diaryl-3-azabicyclo[3.3.1]nonan-9-ones” (2010) come the findings set out here.

The MIC is the lowest concentration found to suppress growth. Read a low MIC as greater potency.

Converted amounts (≈) assume the structure as drawn. The source made the active and inactive calls. The rule behind the calls is not given here.

The subject of experiment [1] is Cryptococcus neoformans. Briefly: Antifungal activity against Cryptococcus neoformans ATCC 3235 after 72 to 96 hrs by serial dilution method. The format is functional.
For experiment [2], the system named is Escherichia coli. Briefly: Antibacterial activity against Escherichia coli ATCC 26032 after 24 hrs by serial dilution method. Type of experiment: functional. The note with it: ATCC 26032, 24 h.
The test system of experiment [3] is Aspergillus flavus. Briefly: Antifungal activity against Aspergillus flavus ATCC 525 after 72 to 96 hrs by serial dilution method. The format is functional.
Experiment [4] deals with Candida albicans. Put plainly: Antifungal activity against Candida albicans ATCC 3430 after 72 to 96 hrs by serial dilution method. The format is functional.
Experiment [5] concerns Rhizopus. Briefly: Antifungal activity against Rhizopus species ATCC 2842 after 72 to 96 hrs by serial dilution method. Type of experiment: functional.
Experiment [6] relates to Bacillus subtilis. Put plainly: Antibacterial activity against Bacillus subtilis ATCC 530 after 24 hrs by serial dilution method. The format is functional. Conditions: ATCC 530, 24 h.
The test system of experiment [7] is Klebsiella pneumoniae. Briefly: Antibacterial activity against Klebsiella pneumoniae ATCC 16425 at 200 ug/ml after 24 hrs by serial dilution method. The format is functional, organism-based.
Experiment [8] relates to Salmonella typhi. Put plainly: Antibacterial activity against Salmonella typhi ATCC 25021 after 24 hrs by serial dilution method. The format is functional, Salmonella enterica subsp. enterica serovar Typhi. The note with it: Salmonella enterica, ATCC 25021, 24 h.
The test system of experiment [9] is Staphylococcus aureus. Put plainly: Antibacterial activity against Staphylococcus aureus ATCC 25930 after 24 hrs by serial dilution method. Type of experiment: functional. Conditions: ATCC 25930, 24 h.
Experiment [10] has as its system Aspergillus niger. Put plainly: Antifungal activity against Aspergillus niger ATCC 635 at 200 ug/ml after 72 to 96 hrs by serial dilution method. Type of experiment: functional, organism-based.
In experiment [11] the test system is Escherichia coli. Put plainly: Antibacterial activity against Escherichia coli ATCC 26032 at 200 ug/ml after 24 hrs by serial dilution method. The format is functional, organism-based.
Experiment [12] has as its system Aspergillus niger. Put plainly: Antifungal activity against Aspergillus niger ATCC 635 after 72 to 96 hrs by serial dilution method. The format is functional.
Experiment [13] has as its system Klebsiella pneumoniae. Briefly: Antibacterial activity against Klebsiella pneumoniae ATCC 16425 after 24 hrs by serial dilution method. Type of experiment: functional. The note with it: ATCC 16425, 24 h.
Experiment [14] relates to Bacillus subtilis. Briefly: Antibacterial activity against Bacillus subtilis ATCC 530 at 200 ug/ml after 24 hrs by serial dilution method. Type of experiment: functional, organism-based.

On to `CCC(=O)NC1=NN(C(=O)CC)C2(S1)C1CCCC2C(c2cccc(OC)c2)N(C(=O)CC)C1c1cccc(OC)c1` (stereo not given), for which the MIC turned out to be 200 µg/mL (≈ 337 µM) in experiment [1]; 50 µg/mL (≈ 84.4 µM) in [2]; 25 µg/mL (≈ 42.2 µM) in experiment [3]; 25 µg/mL (≈ 42.2 µM) in [4]; 50 µg/mL (≈ 84.4 µM) in experiment [5]; 50 µg/mL (≈ 84.4 µM) in [6]. The MIC in experiment [8] turned out to be 200 µg/mL (≈ 337 µM); in experiment [9], 100 µg/mL (≈ 169 µM). The inhibition result in [7] and in experiment [10] was “inactive” each time.
Regarding `COc1cccc(C2NC(c3cccc(OC)c3)C3CCCC2C32SC(NC(C)=O)=NN2C(C)=O)c1` (stereo not given), the MIC in [1] is 50 µg/mL (≈ 98.3 µM); in experiment [2] it was 200 µg/mL (≈ 393 µM); in experiment [12], 100 µg/mL (≈ 197 µM); in experiment [3], 200 µg/mL (≈ 393 µM); in [4], 25 µg/mL (≈ 49.2 µM); in experiment [5], 50 µg/mL (≈ 98.3 µM). Besides, the MIC in experiment [13] came to 100 µg/mL (≈ 197 µM); in experiment [6] it was 50 µg/mL (≈ 98.3 µM); in experiment [9], 100 µg/mL (≈ 197 µM). For the same molecule, the inhibition result in [11] is “inactive”.
For `CC(=O)N(C1=NN(C(C)=O)C2(S1)C1CCCC2C(c2ccc(Cl)cc2)N(C(C)=O)C1c1ccc(Cl)cc1)c1ccccc1` (stereo not given), the MIC was determined as 50 µg/mL (≈ 78.7 µM) in [1]; 25 µg/mL (≈ 39.3 µM) in experiment [2]; 200 µg/mL (≈ 315 µM) in experiment [3]; 100 µg/mL (≈ 157 µM) in experiment [4]; 12.5 µg/mL (≈ 19.7 µM) in experiment [5]; 50 µg/mL (≈ 78.7 µM) in experiment [13]. Further, the MIC was 25 µg/mL (≈ 39.3 µM) in experiment [6], 12.5 µg/mL (≈ 19.7 µM) in experiment [8] and 12.5 µg/mL (≈ 19.7 µM) in experiment [9]. Besides, in [10], the inhibition entry is “inactive”.
Regarding `CC(=O)NC1=NN(C(C)=O)C2(S1)C1CCCC2C(c2ccc(Cl)cc2)NC1c1ccc(Cl)cc1` (stereo not given), the MIC in experiment [1] stood at 6.25 µg/mL (≈ 12.1 µM); in experiment [2], 12.5 µg/mL (≈ 24.2 µM); in experiment [12] it was 25 µg/mL (≈ 48.3 µM); in experiment [3], 50 µg/mL (≈ 96.6 µM); in experiment [4], 25 µg/mL (≈ 48.3 µM); in [5], 200 µg/mL (≈ 386 µM). For the same molecule, the MIC in [13] was found to be 50 µg/mL (≈ 96.6 µM); in experiment [8], 25 µg/mL (≈ 48.3 µM); in [9], 25 µg/mL (≈ 48.3 µM). For the same molecule, the inhibition entry in [14] was “inactive”.
Take `CCC(=O)NC1=NN(C(=O)CC)C2(S1)C1CCCC2C(c2ccc(OC)cc2)N(C(=O)CC)C1c1ccc(OC)cc1` (stereo not given): the MIC in [1] came to 50 µg/mL (≈ 84.4 µM); in experiment [2] it was 50 µg/mL (≈ 84.4 µM); in experiment [12] it was 25 µg/mL (≈ 42.2 µM); in [3], 100 µg/mL (≈ 169 µM); in experiment [4], 25 µg/mL (≈ 42.2 µM); in experiment [5], 100 µg/mL (≈ 169 µM). Also, the MIC in [13], in experiment [8] and in experiment [9] was 25 µg/mL (≈ 42.2 µM) in each case. Also, the inhibition result in experiment [14] was “inactive”.
Regarding `CC(=O)NC1=NN(C(C)=O)C2(S1)C1CCCC2C(c2ccccc2Cl)NC1c1ccccc1Cl` (stereo not given), the MIC in [1] worked out at 50 µg/mL (≈ 96.6 µM); in experiment [2], 12.5 µg/mL (≈ 24.2 µM); in experiment [3] it was 12.5 µg/mL (≈ 24.2 µM); in [4], 12.5 µg/mL (≈ 24.2 µM); in experiment [5] it was 12.5 µg/mL (≈ 24.2 µM); in experiment [13], 25 µg/mL (≈ 48.3 µM). Further, the MIC in experiment [6], in experiment [8] and in [9] was 12.5 µg/mL (≈ 24.2 µM) throughout. For the same molecule, in [10], the inhibition entry is “inactive”.
